Source: patent US9090617B1, “Agonists of Src homology-2 containing protein tyrosine phosphatase-1 and treatment methods using the same” (National Taiwan University, priority 2011, dated 2015)
“Also recorded” adds a separate entry of the source.

Legend:
[1] = target: T1, SHP-1 (Homo sapiens, UniProt P29350); test: Phosphatase activity of SHP-1 immunoprecipitated from PLC5 cells, incubated with compound in vitro; format: biochemical; set-up: PLC5 protein extract was incubated with anti-SHP-1 antibody in immunoprecipitation buffer overnight; endogenous in cells; host or cells: PLC5 (PLC/PRF/5); settings: SHP-1-containing PLC5 extract, 10 or 100 nmol/L, 30 min, 4° C.
Protocol: PLC5 protein extract was incubated with anti-SHP-1 antibody in immunoprecipitation buffer overnight. Protein G Sepharose 4 Fast flow (GE Healthcare Bio-Science) was added to each sample, followed by incubation for 3 hours at 4° C. with rotation. […] RediPlate 96 EnzChek Tyrosine Phosphatase Assay kit (R-22067) was used for SHP-1 activity assay (Molecular Probes).

[2] = Pharmacokinetics of SC-43; format: in vivo; settings: compared with literature report for sorafenib
Protocol: (§1) We established an HCC orthotopic model using luc2-expressed PLC5 cells inoculated into liver of nude mice. […] To further correlate the molecular mechanism with the anticancer effect in vivo, p-STAT3 and SHP-1 activity in tumor extract from vehicle- and SC-treated mice was analyzed by immunoblotting. […] The pharmacokinetics of SC-43 was determined (FIG. 25E).

[3] = system: PLC5 tumors; test: Subcutaneous PLC5 xenograft; format: in vivo, mice; settings: 10 mg/kg/day orally
Protocol: All experimental procedures using these mice were done in accordance with protocols approved by the Institutional Laboratory Animal Care and Use Committee of National Taiwan University. Each mouse was inoculated s.c. in the dorsal flank with 1×10^6 PLC5 cells suspended in 0.1 mL of serum-free medium containing 50% Matrigel (BD Biosciences). When tumors reached 100 to 200 mm3, mice received SC-40 tosylate (10 or 20 mg/kg) orally once daily. Tumors were measured weekly using calipers, and their volumes were calculated using the following standard formula: width×length×height×0.52.
as §1

[4] = system: HCC cells; test: cells
From the text: Points, mean; bars, SD (n=6).
Points, mean; bars, SD ([…]). […] The N-SH2 domain is in orange, the C-SH2 domain is in marine, the PTP domain is in hot pink, and the linkers between them are in gray. […] ELISA, enzyme-linked immunosorbent assay.

[5] = system: MDAMB231, MDAMB468, MCF-7, HL-60, KG-1 and ML-1; test: Anti-proliferation in breast cancer and leukemia cell lines; format: cell-based; settings: MDAMB231, MDAMB468, MCF-7, HL-60, KG-1, ML-1
Protocol: The Huh-7 HCC cell line was obtained from the Health Science Research Resources Bank (Osaka, Japan; JCRB0403). The PLC/PRF/5 (PLC5), Sk-Hep-1, and Hep3B cell lines were obtained from American Type Culture Collection (Manassas, Va.). The cells were maintained in DMEM supplemented with 10% FBS, 100 units/mL penicillin G, 100 μg/mL streptomycin sulfate and 25 μg/mL amphotericin B in a 37° C. humidified incubator in an atmosphere of 5% CO2 in air. Other cell lines, including breast cancer cells e.g. MDAMB231, MDAMB468, MCF-7, and leukemia cancer cells e.g. HL-60, KG-1 and ML-1 are also provided for the assays described below.
We also examed the effects of SC-1 and SC-43 in other cancer cell lines, including breast cancer cell lines e.g. MDAMB231, MDAMB468, MCF-7, and leukemia cancer cell lines e.g. HL-60, KG-1 and ML-1.

[6] = system: PLC5/luc2 orthotopic tumors; test: HCC orthotopic model with PLC5/luc2 cells; format: in vivo, mice; settings: 10 mg/kg/day orally
Protocol: All experimental procedures using these mice were done in accordance with protocols approved by the Institutional Laboratory Animal Care and Use Committee of National Taiwan University. Each mouse was inoculated within liver […] with 1×10^4 PLC5/luc cells suspended in 0.1 mL of serum-free medium containing 50% Matrigel (BD Biosciences). […] Tumor growth was monitored by non-invasive in vivo imaging system (IVIS) image system twice weekly.
as §1

[7] = system: phospho-STAT3 (Tyr705); test: Phospho-STAT3 (Tyr705) sandwich ELISA; format: cell-based; settings: PLC5 cells
Protocol: A PathScan Phospho-Stat3 (Tyr705) Sandwich ELISA Kit was used for the detection of phospho-STAT3 (Cell Signaling, Danvers, Mass.). Cells were pre-treated with IL-6 1 ng/ml and then exposed with various compounds at 10 μM for 24 h. After incubation with cell lysates, both non-phospho- and phospho-Stat3 proteins are captured by the coated antibody. The expression of phospho-STAT3 was measured at 450 nm absorbance.
The decreased level of P-STAT3 induced by these derivatives was correlated with cell toxicity. In the other words, these derivatives induced cell death in part through inhibition of STAT3.
We also assayed the activation status of p-STAT3 by STAT3 ELISA. […] SC-1 or sorafenib-treated cell extracts were incubated with antibody against phosphorylated STAT3 at Y705. […] To evaluate the transcriptional activity, STAT3-binding region was cloned into Luc reporter. […] The firefly luciferase activity was evaluated and normalized by Renilla luciferase.
p-STAT3 activity: PLC5 cells treated with SC derivatives were collected in RIPA buffer and analyzed in p-STAT3 ELISA kit. The assay protocol follows the manufacturer.

[8] = system: HCC-bearing mice; test: Antitumor effect of SC-43 in HCC-bearing mice; settings: mouse, in vivo
Protocol: SHP-1/STAT3-related signaling pathway acts as a vital target for the anti-tumor effect of SC-43. See FIG. 22 (A) the cytotoxicity of SC-43 in HCC cells, (B) the antitumor effect of SC-43 in HCC-bearing mice, (C) the activity of SHP-1 induced by SC-43, and (D) Western blot analysis of p-STAT3 and STAT3 in HCC cells treated by SC-43 (10 μM and 20 μM).

[9] = target: T1, SHP-1; test: Phosphatase activity of recombinant SHP-1; format: biochemical; settings: 25 ng protein, 30 minutes
Protocol: RediPlate 96 EnzChek Tyrosine Phosphatase Assay kit (R-22067) was used for SHP-1 activity assay (Molecular Probes). Recombinant SHP-1 protein (25 ng) was incubated with either SC-43 or SC-40 at the indicated dose for 30 minutes and then analyzed by SHP-1 phosphatase activity.

[10] = system: p-STAT3, cyclin D1, survivin, Mc1-1; test: Western blot of STAT3-related proteins in HCC cells; format: cell-based; settings: HCC cells, 24 h
Protocol: Cells were treated with various compounds at 5 and 10 μM for 24 h. Cell lysates were analyzed by western blot.
HCC cells treated with SC-43 (10 μM for 24 h) were collected with RIPA lysis buffer. Antibodies for immunoblotting such as cyclin D1 was purchased from Santa Cruz Biotechnology. Other antibodies such as survivin, phospho-STAT3 (Tyr705), STAT3, Mc1-1, SOCS1, and SOCS3 were from Cell Signaling.

[11] = system: HCC cells; test: Apoptosis analysis by flow cytometry (sub-G1); format: cell-based; settings: for apoptosis (sub-G1): HCC cells, 24 h
In short: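 HCC cells treated with compounds, harvested, fixed in 75% ethanol and stained with 20 ug/ml propidium iodide, 30 min at 37° C in the dark. Sub-G1 population measured by flow cytometry as apoptotic fraction; mean ± SD.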

[12] = system: p-STAT1 and p-STAT5; test: Effect on p-STAT1 and p-STAT5; format: cell-based; settings: indicated doses, 24 h
From the text: (§2) To further investigate the effect of SC-49 on angiogenesis, we tested the effect of SC-49 on the activity of VEGFR1 in HUVEC cells.

[13] = system: Huh-7 tumors
Protocol: Male NCr athymic nude mice (5-7 weeks of age) were obtained from the National Laboratory Animal Center (Taipei, Taiwan). All experimental procedures using these mice were performed in accordance with protocols approved by National Taiwan University. […] Controls received vehicle (Chen K F et al. Cancer Res. 2008; 68:6698-6707).

[14] = target: T2, VEGFR1 (Homo sapiens, UniProt P17948); test: VEGFR1 activity in HUVEC cells; format: cell-based; settings: 24 h
T2 construct: we tested the effect of SC-49 on the activity of VEGFR1 in HUVEC cells; endogenous in cells; host or cells: HUVEC
From the text: as §2

[15] = system: Huh-7 xenograft tumor; test: Huh-7 xenograft with SC-59 or sorafenib and radiation; format: in vivo, mice
Protocol: (A) The effects of SC-59 and radiation on tumor growth. Each mouse was inoculated subcutaneously in the right leg with […] Huh-7 cells suspended in Matrigel. When the tumor reached a volume of 400-600 mm3, mice received vehicle, 5 Gy radiation (one fraction per day) for 4 days, or 10 mg/kg SC-59 p.o. once daily, or a combination for the duration of the study. The data points indicate the mean values (n=6) and the bars indicate the standard error. There were significant differences between the combined treatment group and the vehicle control group (*, P<0.05, **, P<0.01). (B) Left, the expression of P-STAT3 in the Huh-7 tumors was analyzed by western blot. Right, quantified data for p-STAT3 to STAT3. (C) The activity of SHP-1 in Huh-7 tumors. Values are means±SD, *, P<0.05. (D) Body weight of mice after SC-59 and RT treatment. […] The data points indicate the mean values (n=6) and the bars indicate the standard error. […] (H) Body weight of mice treated with vehicle, RT, sorafenib, and combination.
To further elucidate the molecular events responsible for this synergistic effect, we examined the expression level of p-STAT3 in the tumor extract.

[16] = target: T1, SHP-1; test: SHP-1 activity in treated HCC cells (tyrosine phosphatase assay kit); format: cell-based; set-up: endogenous in cells; settings: SK-Hep1 cells
From the text: The RediPlate 96 EnzChek® Tyrosine Phosphatase Assay Kit (R-22067) was used for SHP-1 activity assay (Molecular Probes, Carlsbad, Calif.). The Raf-1 kinase cascade assay kit (Upstate-Millipore, Billerica, Mass.) was used to examine the Raf-1 kinase activity. The JAK2 kinase activity kit was purchased from Reaction Biology Corp. (Malvern, Pa.).

T1 sequence (P29350 whole entry): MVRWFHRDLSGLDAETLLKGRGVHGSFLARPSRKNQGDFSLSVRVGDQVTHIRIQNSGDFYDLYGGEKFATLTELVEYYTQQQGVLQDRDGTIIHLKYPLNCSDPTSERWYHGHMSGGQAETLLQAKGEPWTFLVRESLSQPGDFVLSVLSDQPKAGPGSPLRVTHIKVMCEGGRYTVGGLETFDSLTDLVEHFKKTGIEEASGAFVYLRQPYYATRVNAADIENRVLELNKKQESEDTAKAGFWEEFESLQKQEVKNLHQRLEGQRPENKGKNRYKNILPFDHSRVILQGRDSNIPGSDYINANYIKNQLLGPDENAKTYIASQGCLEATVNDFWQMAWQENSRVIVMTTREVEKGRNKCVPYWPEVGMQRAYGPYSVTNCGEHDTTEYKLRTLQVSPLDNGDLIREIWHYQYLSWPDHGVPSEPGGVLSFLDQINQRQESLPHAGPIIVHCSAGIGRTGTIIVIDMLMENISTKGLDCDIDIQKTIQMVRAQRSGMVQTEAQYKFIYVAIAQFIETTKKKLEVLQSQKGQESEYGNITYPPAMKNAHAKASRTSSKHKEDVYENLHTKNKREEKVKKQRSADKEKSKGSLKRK
T2 sequence (P17948 27-1338): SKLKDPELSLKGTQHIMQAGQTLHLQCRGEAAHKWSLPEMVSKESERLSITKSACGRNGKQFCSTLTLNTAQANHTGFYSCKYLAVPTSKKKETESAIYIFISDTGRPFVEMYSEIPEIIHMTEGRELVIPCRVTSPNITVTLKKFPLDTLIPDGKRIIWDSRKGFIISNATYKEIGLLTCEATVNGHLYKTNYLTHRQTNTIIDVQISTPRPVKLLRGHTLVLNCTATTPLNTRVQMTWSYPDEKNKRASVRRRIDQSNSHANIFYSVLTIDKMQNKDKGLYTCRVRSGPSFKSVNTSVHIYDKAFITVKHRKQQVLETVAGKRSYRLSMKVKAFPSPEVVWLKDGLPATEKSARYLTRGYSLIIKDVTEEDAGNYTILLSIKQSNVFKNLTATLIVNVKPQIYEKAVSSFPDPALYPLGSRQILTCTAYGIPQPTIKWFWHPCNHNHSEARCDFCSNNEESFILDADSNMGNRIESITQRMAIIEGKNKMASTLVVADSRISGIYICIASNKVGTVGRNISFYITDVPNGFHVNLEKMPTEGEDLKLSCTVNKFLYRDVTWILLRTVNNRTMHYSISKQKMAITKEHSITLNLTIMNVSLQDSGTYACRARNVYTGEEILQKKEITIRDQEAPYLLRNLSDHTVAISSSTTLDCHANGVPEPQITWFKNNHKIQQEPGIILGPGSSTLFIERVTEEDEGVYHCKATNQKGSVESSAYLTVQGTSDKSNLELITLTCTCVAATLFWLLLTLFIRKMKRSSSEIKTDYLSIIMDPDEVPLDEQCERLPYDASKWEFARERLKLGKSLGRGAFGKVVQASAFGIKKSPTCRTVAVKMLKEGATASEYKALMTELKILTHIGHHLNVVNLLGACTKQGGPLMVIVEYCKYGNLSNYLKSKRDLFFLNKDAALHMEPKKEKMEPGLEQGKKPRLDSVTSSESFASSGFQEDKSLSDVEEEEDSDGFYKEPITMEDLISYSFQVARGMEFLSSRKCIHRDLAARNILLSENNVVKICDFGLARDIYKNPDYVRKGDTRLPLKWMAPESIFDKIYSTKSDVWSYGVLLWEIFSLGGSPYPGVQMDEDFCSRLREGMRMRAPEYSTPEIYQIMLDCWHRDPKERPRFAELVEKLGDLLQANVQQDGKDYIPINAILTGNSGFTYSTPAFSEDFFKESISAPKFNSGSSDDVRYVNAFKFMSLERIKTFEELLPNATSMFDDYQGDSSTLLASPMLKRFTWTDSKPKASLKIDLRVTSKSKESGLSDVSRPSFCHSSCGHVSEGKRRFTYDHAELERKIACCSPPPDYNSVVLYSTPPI

N#Cc1ccc(Oc2cccc(NC(=O)Nc3ccc(Cl)c(C(F)(F)F)c3)c2)cc1 [SC-43, 1-(3-(4-cyanophenoxyl)phenyl)-3-(4-chloro-3-(trifluoromethyl)phenyl)urea]
phosphatase activity of SHP-1 in vitro [1]: increase phosphatase activity of SHP-1 in vitro | stability in vivo (pharmacokinetics) [2]: exhibited a longer period of stability in vivo than that reported for sorafenib | p-STAT3 and SHP-1 activity in PLC5 tumor lysate [3]: Down-regulation of p-STAT3 and elevation of SHP-1 activity | average tumor size versus control mice at the end of treatment ([3]; SC PLC5 tumor-bearing mice): less than half that of control mice | viability of HCC cells / cytotoxicity ([4]; 72 h): showed lower 50% inhibitory concentration, compared to sorafenib | IC50 ([4]; read-out: IC50, cytotoxicity in HCC cells): ~500 nM | growth of breast cancer and leukemia cell lines [5]: effective in inhibiting the growth of cancer cells | anti-HCC effect and survival in orthotopic model [6]: had an evident anti-HCC effect and significant survival benefit | p-STAT3 / STAT3 activity (phospho-STAT3 ELISA and luciferase reporter) [7]: induce strong inhibition of p-STAT3 activity; also recorded: showed more potent inhibition of the p-STAT3-related signaling pathway | tumor growth inhibition in HCC-bearing mice [8]: significantly causes tumor growth inhibition in HCC-bearing mice | phosphatase activity of recombinant SHP-1 [9]: increase phosphatase activity of SHP-1 in vitro | p-STAT3 and STAT3-related proteins (Western blot) [10]: down-regulates phospho-STAT3-related signaling pathway in HCC; also recorded: shows better inhibition of p-STAT3-related signaling pathway than sorafenib; also recorded: revealed submicromolar inactivation of p-STAT3, relative to sorafenib | apoptosis (sub-G1) [11]: show significant anti-cancer effects in HCC cells | apoptosis in sorafenib-resistant cells ([11]; sorafenib-resistant HCC cells (SR1)): resulted in significant apoptosis in sorafenib-resistant cells at submicromolar concentrations

N#Cc1ccc(Oc2ccc(CNC(=O)Nc3ccc(Cl)c(C(F)(F)F)c3)cc2)cc1 [SC-49, 1-(4-chloro-3-(trifluoromethyl)phenyl)-3-(4-(4-cyanophenoxyl)benzyl)urea]
phosphatase activity of SHP-1 in vitro [1]: increase phosphatase activity of SHP-1 in vitro | p-STAT1 and p-STAT5 [12]: down-regulated both p-STAT1 and p-STAT5 in a dose dependent manner | Huh-7 tumor size / growth versus control ([13]; 10 mg/kg/day orally): significantly reduced the growth of the Huh-7 tumour | body weight or toxicity ([13]; mouse, in vivo, po, 10 mg/kg/day): stable body weights | SHP-1 activity in Huh-7 tumors ([13]; tumor extract): enhanced the activity of SHP-1 in Huh-7 tumours | p-STAT3 in Huh-7 tumors ([13]; tumor extract, Western blot): down-regulated p-STAT3 in Huh-7 tumours | activity of VEGFR1 [14]: did not affect the activity of VEGFR1 in HUVEC cells | apoptosis (sub-G1) [11]: induced more apoptotic cell death than sorafenib

Cc1ccc(NC(=O)Nc2ccc(Cl)c(C(F)(F)F)c2)cc1Oc1ccc(C#N)cc1 [SC-59, 1-(4-chloro-3-(trifluoromethyl)phenyl)-3-(3-(4-cyanophenoxy)-4-methylphenyl) urea]
tumor growth with radiotherapy combination ([15]; 10 mg/kg p.o. once daily plus 5 Gy radiation for 4 days): displayed significant tumor growth inhibition compared to radiotherapy or SC-59 alone | SHP-1 phosphatase activity in tumor samples ([15]; Huh-7 tumors, 10 mg/kg p.o.): induction of SHP-1 phosphatase activity was observed | p-STAT3 in treated tumor samples ([15]; Huh-7 tumors, 10 mg/kg p.o.): resulted in clear inhibition of p-STAT3 | body weight ([15]; Huh-7 xenograft, 10 mg/kg p.o.): no significant difference in body weight | phosphatase activity of SHP-1 in cells [16]: significantly increased the phosphatase activity of SHP-1 in SK-Hep1 cells | p-STAT3 and STAT3-related proteins (Western blot) [10]: downregulated phospho-STAT3 (p-STAT3) at tyrosine 705 along with its downstream molecules
